Where only a bound is given, the exact number is not on record here.

The term melting point denotes the temperature, or range, at which the solid turns liquid. In turn, `CSc1sc(-c2nnn(C)n2)c2c1C(=O)CC(C)(C)C2` returned a melting point of 233 to 235 °C. With `CN1C(=O)C(NC(=O)c2cc3cc(O)ccc3[nH]2)N=C(c2ccccc2)c2ccccc21` (stereo unspecified), the melting point lay in the range of 120 to 130 °C. As for `Cc1ccc(-c2c(Cl)nc(C#N)n2S(=O)(=O)c2c(C)noc2C)cc1`, the figure is 103 to 108 °C; as for `COC(=O)C=Cc1ccc2[nH]c(C)cc2c1`, 172 to 173 °C; as for `CCOC(=O)c1cc(C#N)cc(C)n1`, 50 °C. For `CCc1[nH]n(C2CCCC2)c2nc(-c3ccc(Cl)cc3O)nc(=O)c1-2`, the melting point was greater than 300 °C.

Turning to `Nc1cccc2c1CN(c1c(F)cc3c(=O)c(C(=O)O)cn(-c4ccc(F)cc4F)c3c1F)C2`, the melting point was 264 to 266 °C. Molecule `O=S(=O)(Cl)c1ccc(Nc2nccc(Cl)n2)cc1` came in with a melting point of 192 to 195 °C. Molecule `O=C(CC(O)c1ccccc1)NCc1ccccc1[N+](=O)[O-]` (stereo unspecified) showed a melting point of 145 °C. With `COc1cc(N)c2nccc(C)c2c1OCCCCCc1ccccc1`, the melting point lay in the range of 65 to 66 °C.

As to `O=C(O)C1CCC(=O)N1Cc1ccccc1C(F)(F)F` (stereo unspecified), the melting point is 139 to 141 °C. Turning to `COc1ccc(-c2cnc(C)[nH]c2=O)cc1OC`, the melting point was 187 to 188 °C. `O=c1ccc2cnc(Nc3ccccn3)nc2n1C1CCCC1` returned a melting point greater than 250 °C. The molecule `COCC(C)OC(=O)c1ccc([N+](=O)[O-])cc1[N+](=O)[O-]` (stereo unspecified) returned a melting point of 42 °C. `C=CCNC(=O)C1CCc2cc(-c3ccccc3)ccc2O1` (stereo unspecified) yielded a melting point of 123 to 124 °C. The figure for `CC(C)(C)c1ccc(C(=O)Nc2cn3nc(NCc4ccncc4)ccc3n2)cc1` is 222 to 223 °C. `Cc1ccc(S(=O)(=O)Oc2ccc(CN3CCOCC3)nc2)cc1` showed a melting point of 68 to 69 °C. Molecule `CN1C(=O)CC[C@]2(C)c3ccc(Sc4nc5c(Cl)cccc5s4)cc3CC[C@@H]12` yielded a melting point of 207 to 209 °C. For the molecule `COC(=O)CCCc1cc2cc(Cl)ccc2n1S(=O)(=O)c1ccccc1`, the melting point lay in the range of 109 to 112 °C. As for `Nc1ccc(CNc2n[nH]c3ncnc(Nc4cccc(Cl)c4)c23)cc1`, the figure is 170 to 171 °C; as for `CCOC(=O)c1ccc(C(C(N)=O)C(C)c2cc(N)ccc2N2CCCCC2)cc1` (stereo unspecified), 148 to 150 °C. The figure for `CNC(=O)/C=C1\CCc2c(Cl)cc(F)cc21` is 173 to 175 °C; for `COc1ccc2cc(C(=O)O)ccc2n1` it is 220 to 222 °C; for `COC(=O)C(=O)c1ccc(OCCCCSc2ccc3ccccc3c2)cc1` it is 64 to 65 °C. On to `COC(=O)CCCCc1ccc(C(=O)Cc2ccccc2)cc1`, for which the melting point lay within 53.5 to 54 °C. Take `O=C1NC(=O)c2c3ccccc3cc3cccc1c23`: the melting point is 310 °C.

`O=C1CNc2ncc(I)cc2N1Cc1c(Cl)cccc1Cl` displayed a melting point greater than 200 °C. In turn, `CNc1nc(Cl)nc2c1ncn2C1CC(O)C(CO)O1` (stereo unspecified) registered a melting point of 163 to 165 °C. With `O=S(=O)(c1ccc2ccccc2c1)N1C[C@@H](S)C[C@@H]1COCc1ccccc1`, the melting point fell in the range of 79 to 80 °C.

On to `O=C(Nc1cc(C(F)(F)F)cc2ncn(-c3ccccc3)c12)c1ccccc1`, for which the melting point was in the range of 152 to 155 °C. The molecule `CCCCc1nc(SCC)c(C(=O)O)n1Cc1ccc(-c2ccccc2C(=O)O)cc1` yielded a melting point of 156 °C. In turn, `O=C1c2cc([N+](=O)[O-])ccc2CCC1Br` (stereo unspecified) had a melting point of 94 to 96 °C. As for `CCCC(=O)COS(=O)(=O)c1c(C)cc(C)cc1C`, the melting point lay in the range of 57.5 to 58.5 °C.

With `O=S(=O)(Cl)c1cc(S(=O)(=O)Cl)c(Cl)cc1Cl`, the melting point came to 104 °C. For `CN(CCNC(=O)NCCCOc1cccc(CN2CCCCC2)c1)CCN(Cc1ccc(F)cc1)c1ccccn1`, the melting point was determined as 68 °C. The figure for `CN1Cc2c(I)ncn2-c2cccc(Br)c2C1=O` is 203 to 204 °C.

For the origin of these results see a melting point compilation (Tetko et al.; mined from patent text by program, amines drawn as free bases though some values may be those of a salt).
